Assay results taken from EP0462621A2, “Use of particular compounds for manufacture of pharmaceutical formulations for treatment against various parasites, mycoplasmas, other indications and other infections” (Prendergast, Patrick Thomas, priority 1990, dated 1991).

Columns and labels:
L donovani [1] = assay: Amastigote-promastigote (AM-PRO) transformation, in-vitro; type: cell-based; details: Ld.
L major/L mexicana [2] = assay: as above; type: cell-based; details: Lm.
[3] = system: T.b. brucei, T.b. gambiense and T.b. rhodesiense; assay: Cultivated bloodstream trypomastigote (TRY) in-vitro screen; type: cell-based
From the text: Culture systems developed in the last decade have used mammalian cell feeder layers to support the growth of dividing populations of bloodstream trypomastigotes of T. brucei spp. Some of these systems have been used in chemotherapy studies, including; (1) bovine fibroblast culture - T. brucei models to test some standard and experimental compounds, (2) murine bone marrow culture - T.b. gambiense model to screen inosine analogues and platinum and hypolipidemic compounds, and (3) Microtus embryonic fibroblast culture (MEF) - T.b. rhodesiense model to test standard and experimental drugs. These systems give a good indication of in-vivo activity (see Table 3). They measure activity against dividing cells rather than specific macromolecular synthesis pathways and can be readily established in micro-titre plates. The MEF and bone marrow cell feeder layers can be used to grow a range of strains of T. brucei spp., offering the possibility of examining variations in drug susceptibility and resistance between strains. The presence of a feeder layer, however, limits the opportunities for the automation of these systems.
(§1) In-vitro and in-vivo models were used to test activities of a selection of many compounds. Those activities are summarized in Tables 1-3, showing variation between systems and species. Activities measured in the MP mo and HM mo models have shown the best correlation with results obtained in hamster and mouse models.

L major/L mexicana [4] = assay: Leishmania mouse/hamster models, in-vivo; details: Lm. Note: key: - no/poor activity,; + fair/moderate activity,; ++ good/excellent activity.
From the text: as §1

L donovani [5] = assay: Leishmania mouse/hamster models, in-vivo; details: Ld. Note: key: - no/poor activity,; + fair/moderate activity,; ++ good/excellent activity.
From the text: as §1

L major/L mexicana [6] = assay: Leishmania promastigote (PRO) in-vitro screen; type: cell-based; details: Lm.
From the text: (§2) Following initial infection, the amastigote is the only form present in the mammalian host, surviving and dividing in various macrophage populations. Differences between the promastigote and amastigote in form and habitat are not matched by known biochemical dissimilarities. However, the drug susceptibility of the cultured promastigote, used in many early chemotherapy screens, contrasts markedly with that of the amastigote (see Table 1, below), most importantly to the clinically used pentavalent antimonials - sodium stibogluconate (Pentostam) and meglumine antimoniate (Glucantime).
(§3) Amastigotes of Leishmania can be cultivated in a wide range of mammalian cells, some of which may be used in in-vitro screens. These include (1) a Sticker dog sarcoma (fibroblast) cell line, (2) transformed rodent macrophage cell lines, (3) primary isolated mouse peritoneal macrophages (MP mo), and (4) human monocyte-derived macrophages (HM mo). The methods are similar for all models. Amastigote or promastigote infected cells are maintained in a medium containing the drug for 4-7 days, at 37 C for L. donovani and 33-35 C for L. major and L. mexicana. Drug activity is then assessed by counting (I) the number of infected host cells and/or (II) the number of amastigotes/100 host cells.
as §1

L donovani [7] = assay: Leishmania promastigote (PRO) in-vitro screen; type: cell-based; details: Ld.
From the text: as §2, §3, §1

[8] = system: T.b. brucei, T.b. gambiense and T.b. rhodesiense; assay: Procyclic trypomastigote (TRY) in-vitro screen; type: cell-based; note: key: - no/poor activity,; + fair/moderate activity,; ++ good/excellent activity
Protocol: (§4) Primary screening for new trypanocides has made extensive use of rodent systems, in which host survival time is a simple indicator of drug activity. In-vitro screens have used a variety of trypomastigote types (see Table 3, below). […] Most early in-vitro screens employed a short test in which bloodstream trypomastigotes were isolated from an infected rodent and maintained for up to 24 h in a simple drug-containing media. Two significant modifications of this technique include maintaining isolated bloodstream trypomastigotes in drug-containing media for 3-4 hours at 37° C in micro-titre plates and their subsequent viability assessed by the uptake of radiolabelled precursors or motility and infectivity to mice.
as §1

[9] = system: T.b. brucei, T.b. gambiense and T.b. rhodesiense; assay: African trypanosomiasis mouse model, in-vivo
Protocol: as §4, §1

L major/L mexicana [10] = assay: Amastigotes (AM) in mouse or human macrophages (mos), in-vitro; type: cell-based; details: Lm., Amastigote
From the text: as §3, §1

L donovani [11] = assay: as above; type: cell-based; details: Ld., Amastigote
From the text: as §3, §1

[12] = system: T.b. brucei, T.b. gambiense and T.b. rhodesiense; assay: Isolated bloodstream trypomastigote (TRY) in-vitro screen; type: cell-based
Protocol: as §4
In-vitro studies on isolated bloodstream trypomastigotes were also used in the rational biochemical approaches towards the chemotherapy of T. brucei infections involving inhibitors of carbohydrate catabolism salicyl hydroxamic acid plus glycerol), of polyamine synthesis (methylgyoxal bis-guanylhydrazone and - DFMO), and of surface coat glycoprotein synthesis (Tunicamycin). In these studies, activity of the compounds are shown in-vitro and in-vivo, whereas the sensitivity of isolated bloodstream trypomastigotes to toxic oxygen radicals generated by naphthoquinones was not shown by the parasites in mice. The activity of the standard anti-trypanosomals-melarsoprol, pentamidine and suramin and tested compounds according to the present invention in in-vitro systems is shown in Table 3.
as §1

L major/L mexicana [13] = assay: Amastigotes (AM) in cell lines, in-vitro; type: cell-based; details: Lm., Amastigote; note: key: - no/poor activity,; + fair/moderate activity,; ++ good/excellent activity
From the text: as §3, §1

L donovani [14] = assay: Amastigotes (AM) in cell lines, in-vitro; type: cell-based; details: Ld., Amastigote; note: key: - no/poor activity,; + fair/moderate activity,; ++ good/excellent activity
From the text: as §3, §1

T. cruzi [15] = assay: T. cruzi mouse model, in-vivo
From the text: as §1

T. cruzi [16] = assay: T. cruzi trypomastigote (TRY) in-vitro screen; type: cell-based
Protocol: (§5) In-vitro chemotherapy screens have for many years used models involving three stages of the T. cruzi life cycle: • (1) Epimastigote. Dividing populations are easily cultivated in a range of defined and semi-defined media, but are equivalent to a vector stage of the life cycle. • (2) Trypomastigote. These are isolated from a rodent host and can be maintained as a non-dividing population for 24-48 h in media. • (3) Amastigote. Dividing populations can be cultivated in muscle cells, fibroblasts and macrophages, following infection with trypomastigotes. After the initial infection, there is normally a period of 4-5 days during which the amastigotes divide before transforming, via the epimastigote stage, back to trypomastigotes which escape from the cell. Drug activity is measured during this 4-5 day period. A dividing host cell population, low infection rate, and the presence of trypomastigotes in the overlay can complicate the interpretation of results.

T. cruzi [17] = assay: T. cruzi epimastigote (EPI) in-vitro screen; type: cell-based
Protocol: as §5

T. cruzi [18] = assay: T. cruzi intracellular amastigote (AM) in-vitro screen; type: cell-based
Protocol: Dividing populations can be cultivated in muscle cells, fibroblasts and macrophages, following infection with trypomastigotes. After the initial infection, there is normally a period of 4-5 days during which the amastigotes divide before transforming, via the epimastigote stage, back to trypomastigotes which escape from the cell. Drug activity is measured during this 4-5 day period. A dividing host cell population, low infection rate, and the presence of trypomastigotes in the overlay can complicate the interpretation of results.
Intracellular amastigote models can use a range of muscle (skeletal and cardiac) and fibroblast (e.g. HeLa, HePa) cell lines, macrophages, and chick embryo cells. […] To overcome the problems of overgrowth of the monolayer and a low percentage of infected cells, often associated with the use of cell lines, irradiated rat L6 myoblasts are used.

Row | SMILES | Activity, AM-PRO transform-ation (L donovani [1]) | Activity, AM-PRO transform-ation (L major/L mexicana [2]) | activity, cultivated bloodstream TRY [3] | Activity, mouse/ hamster models (L major/L mexicana [4]) | Activity, mouse/ hamster models (L donovani [5]) | Activity, PRO (L major/L mexicana [6]) | Activity, PRO (L donovani [7]) | activity, procyclic TRY [8] | Activity, AM in mouse or human mos (L major/L mexicana [10]) | Activity, AM in mouse or human mos (L donovani [11]) | Activity, AM in cell lines (L major/L mexicana [13]) | Activity, AM in cell lines (L donovani [14]) | activity, mouse model (T. cruzi [15]; T. cruzi strain Sonya) | activity, mouse model (T. cruzi [15]; T. cruzi strain Y) | activity, TRY (T. cruzi [16]; T. cruzi strain Sonya) | activity, TRY (T. cruzi [16]; T. cruzi strain Y) | activity, EPI (T. cruzi [17]; T. cruzi strain MR) | activity, EPI (T. cruzi [17]; T. cruzi strain Sonya) | activity, EPI (T. cruzi [17]; T. cruzi strain Y) | activity, intracellular AM (T. cruzi [18]; T. cruzi strain Sonya) | also measured
1 | CC(C)=CCNc1ncnc2c1ncn2[C@@H]1O[C@H](COP(=O)(O)O)[C@@H](O)[C@H]1O [N6-Isopentenyl Adenosine-5'monophosphate, N^6-(Δ^2-isopentenyl) adenosine-5'-monophosphate] | + | + + | + | - | + | - | + + | + + | + + | + | + | - | + | ++ | ++(Y,Sonya) | ++(Y,Sonya) | +(Y,MR, Sonya) | +(Y,MR, Sonya) | +(Y,MR, Sonya) | ++(Y,Sonya) | activity, mouse model [9]: +; activity, isolated bloodstream TRY [12]: +; activity, intracellular AM (T. cruzi [18]; T. cruzi strain Y): ++(Y,Sonya)
2 | OC[C@H]1O[C@@H](n2cnc3c(NCc4ccco4)ncnc32)[C@H](O)[C@@H]1O [Furfuryladenosine] | + + | + + | + | + | + | + + | + + | + | + + | + | + | - | + | ++ | + (Y,Sonya) | + (Y,Sonya) | ++(Y,MR, Sonya) | ++(Y,MR, Sonya) | ++(Y,MR, Sonya) | + (Y,Sonya) | activity, isolated bloodstream TRY [12]: + +; activity, intracellular AM (T. cruzi [18]; T. cruzi strain Y): + (Y,Sonya)
3 | OC[C@H]1O[C@@H](n2cnc3c(NCc4ccccc4)ncnc32)[C@H](O)[C@@H]1O [N6-Benzyladenosine, N^6-benzyladenosine] | + + | + + | + + | - | - | + + | + + | + + | + | + | + | - | +(Y)+(Sonya) | +(Y)+(Sonya) | + (Y,Sonya) | + (Y,Sonya) | +(Y,MR, Sonya) | +(Y,MR, Sonya) | +(Y,MR, Sonya) | + (Y,Sonya) | activity, mouse model [9]: + +; activity, intracellular AM (T. cruzi [18]; T. cruzi strain Y): + (Y,Sonya)
